Laboratory results taken from PubChem BioAssay (NCI).
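The compound was tested at five concentrations on cells cultured in 96-well plates, with a 48-hour exposure period. TGI: total growth inhibition.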

Columns and labels:
Assay in all cases: growth of human tumour cells (NCI), 48 h
COLO 205 colon = tested on: COLO 205 colon
SN12C renal = tested on: SN12C renal
A498 renal = tested on: A498 renal
CAKI-1 renal = tested on: CAKI-1 renal
786-0 renal = tested on: 786-0 renal
TK-10 renal = tested on: TK-10 renal
IGROV1 ovarian = tested on: IGROV1 ovarian
K-562 leukemia = tested on: K-562 leukemia
OVCAR-4 ovarian = tested on: OVCAR-4 ovarian
HT29 colon = tested on: HT29 colon
UO-31 renal = tested on: UO-31 renal
HCT-116 colon = tested on: HCT-116 colon
HOP-62 NSCLC = tested on: HOP-62 NSCLC
MCF7 breast = tested on: MCF7 breast
RPMI-8226 leukemia = tested on: RPMI-8226 leukemia
SK-MEL-5 melanoma = tested on: SK-MEL-5 melanoma
NCI-H460 lung = tested on: NCI-H460 lung
MDA-MB-435 = tested on: MDA-MB-435
SK-OV-3 ovarian = tested on: SK-OV-3 ovarian
HS 578T breast = tested on: HS 578T breast
BT-549 breast = tested on: BT-549 breast
SNB-19 CNS = tested on: SNB-19 CNS
SR leukemia = tested on: SR leukemia
NCI-H522 lung = tested on: NCI-H522 lung
HCT-15 colon = tested on: HCT-15 colon
MOLT-4 leukemia = tested on: MOLT-4 leukemia
OVCAR-3 ovarian = tested on: OVCAR-3 ovarian
NCI/ADR-RES ovarian = tested on: NCI/ADR-RES ovarian
OVCAR-5 ovarian = tested on: OVCAR-5 ovarian
NCI-H23 lung = tested on: NCI-H23 lung
A549 NSCLC = tested on: A549 NSCLC
T-47D breast = tested on: T-47D breast
ACHN renal = tested on: ACHN renal
SK-MEL-2 melanoma = tested on: SK-MEL-2 melanoma
LOX IMVI melanoma = tested on: LOX IMVI melanoma
UACC-257 melanoma = tested on: UACC-257 melanoma
M14 melanoma = tested on: M14 melanoma
EKVX NSCLC = tested on: EKVX NSCLC
SNB-75 CNS = tested on: SNB-75 CNS
SF-295 CNS = tested on: SF-295 CNS
MDA-N = tested on: MDA-N
SF-539 CNS = tested on: SF-539 CNS
U251 CNS = tested on: U251 CNS
NCI-H226 lung = tested on: NCI-H226 lung
KM12 colon = tested on: KM12 colon
SK-MEL-28 melanoma = tested on: SK-MEL-28 melanoma
RXF 393 renal = tested on: RXF 393 renal
OVCAR-8 ovarian = tested on: OVCAR-8 ovarian
SW-620 colon = tested on: SW-620 colon
UACC-62 melanoma = tested on: UACC-62 melanoma
MDA-MB-231 breast = tested on: MDA-MB-231 breast
PC-3 prostate = tested on: PC-3 prostate
HOP-92 NSCLC = tested on: HOP-92 NSCLC
MALME-3M melanoma = tested on: MALME-3M melanoma
SF-268 CNS = tested on: SF-268 CNS

Measured: TGI

c1cncc(CNCCN2CCNCC2)c1
> 100 µM: COLO 205 colon | SN12C renal | A498 renal | CAKI-1 renal | 786-0 renal | TK-10 renal | IGROV1 ovarian | K-562 leukemia | OVCAR-4 ovarian | HT29 colon | UO-31 renal | HCT-116 colon | HOP-62 NSCLC | MCF7 breast | RPMI-8226 leukemia | SK-MEL-5 melanoma | NCI-H460 lung | MDA-MB-435 | SK-OV-3 ovarian | HS 578T breast | BT-549 breast | SNB-19 CNS | SR leukemia | NCI-H522 lung | HCT-15 colon | MOLT-4 leukemia | OVCAR-3 ovarian | NCI/ADR-RES ovarian | OVCAR-5 ovarian | NCI-H23 lung | A549 NSCLC | T-47D breast | ACHN renal | SK-MEL-2 melanoma | LOX IMVI melanoma | UACC-257 melanoma | M14 melanoma | EKVX NSCLC | SNB-75 CNS | SF-295 CNS | MDA-N | SF-539 CNS | U251 CNS | NCI-H226 lung | KM12 colon | SK-MEL-28 melanoma | RXF 393 renal | OVCAR-8 ovarian | SW-620 colon | UACC-62 melanoma | MDA-MB-231 breast | PC-3 prostate | HOP-92 NSCLC | MALME-3M melanoma | SF-268 CNS
